From PubChem BioAssay AID248 (DTP/NCI, 2004)
Where “and” joins values, the source holds several entries; their conditions need not be identical. Equal values may be shown once. Inconclusive results and toxic doses are left out. No stated cut-off is given here; in the data, active means T/C of 150% or more; inactive means T/C below 125%.

Test system: L1210 leukemia ip in BDF1 mice, survival T/C
Assay: NCI In Vivo Anticancer Drug Screen. Data for tumor model L1210 Leukemia (intraperitoneal) in B6D2F1 (BDF1) mice
Conditions: endpoint: mean survival time, higher = longer survival
Method in brief: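 Transplantable tumor model; survival measured in treated vs vehicle control mice. Value = treated/control.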

[1] = dose: 25.0 mg/kg/injection, schedule: Q01DX009 (ip), vehicle: saline
[2] = dose: 50.0 mg/kg/injection, schedule: Q01DX009 (ip), vehicle: saline
[3] = dose: 100.0 mg/kg/injection, schedule: Q01DX009 (ip), vehicle: saline

Measured: T/C

CN(C)CCCN1c2ccccc2Sc2ccc(Cl)cc21
inactive: dose: 0.77 mg/kg/injection, schedule: Q03HX024 (ip), vehicle: saline 104 % of control | dose: 0.78 mg/kg/injection, schedule: Q04DX024 (oral), vehicle: saline 98 % of control | dose: 1.55 mg/kg/injection, schedule: Q03HX024 (ip), vehicle: saline 109 % of control | dose: 1.56 mg/kg/injection, schedule: Q04DX003 (ip), vehicle: saline 101 % of control | dose: 1.56 mg/kg/injection, schedule: Q04DX024 (oral), vehicle: saline 90 % of control | dose: 2.0 mg/kg/injection, schedule: Q01DX009 (ip), vehicle: saline 95 % of control and 113 % of control | dose: 2.5 mg/kg/injection, schedule: Q01DX015 (ip), vehicle: saline 103 % of control | dose: 3.1 mg/kg/injection, schedule: Q03HX024 (ip), vehicle: saline 102 % of control | dose: 3.12 mg/kg/injection, schedule: Q01DX009 (ip), vehicle: saline 111 % of control | dose: 3.12 mg/kg/injection, schedule: Q04DX003 (ip), vehicle: saline 101 % of control | dose: 3.12 mg/kg/injection, schedule: Q04DX024 (oral), vehicle: saline 104 % of control | dose: 4.0 mg/kg/injection, schedule: Q01DX009 (ip), vehicle: saline 93 % of control and 106 % of control | dose: 5.0 mg/kg/injection, schedule: Q01DX015 (ip), vehicle: saline 105 % of control | dose: 6.2 mg/kg/injection, schedule: Q03HX024 (ip), vehicle: saline 109 % of control | dose: 6.25 mg/kg/injection, schedule: Q04DX003 (ip), vehicle: saline 102 % of control and 103 % of control | dose: 8.0 mg/kg/injection, schedule: Q01DX009 (ip), vehicle: saline 106 % of control and 120 % of control | dose: 8.0 mg/kg/injection, schedule: Q01DX015 (ip), vehicle: saline 104 % of control | dose: 10.0 mg/kg/injection, schedule: Q01DX009 (ip), vehicle: saline 111 % of control | dose: 10.0 mg/kg/injection, schedule: Q01DX015 (ip), vehicle: saline 105 % of control | dose: 12.0 mg/kg/injection, schedule: Q01DX015 (ip), vehicle: saline 115 % of control | dose: 12.4 mg/kg/injection, schedule: Q03HX024 (ip), vehicle: saline 116 % of control | dose: 12.5 mg/kg/injection, schedule: Q01DX001 (ip), vehicle: saline 94 % of control | dose: 12.5 mg/kg/injection, schedule: Q01DX009 (ip), vehicle: saline 110 % of control and 102 % of control | dose: 12.5 mg/kg/injection, schedule: Q04DX003 (ip), vehicle: saline 109 % of control [middle of 4 runs] | dose: 16.0 mg/kg/injection, schedule: Q01DX009 (ip), vehicle: saline 87 % of control | dose: 18.0 mg/kg/injection, schedule: Q01DX015 (ip), vehicle: saline 121 % of control | dose: 18.75 mg/kg/injection, schedule: Q01DX001 (ip), vehicle: saline 113 % of control and 123 % of control | dose: 18.75 mg/kg/injection, schedule: Q01DX009 (ip), vehicle: saline 101 % of control | dose: 20.0 mg/kg/injection, schedule: Q01DX009 (ip), vehicle: saline 108 % of control | dose: 20.0 mg/kg/injection, schedule: Q01DX Z (ip), vehicle: methylcellulose (MC) 108 % of control | dose: 20.0 mg/kg/injection, schedule: Q04DX003 (ip), vehicle: saline 115 % of control | dose: 25.0 mg/kg/injection, schedule: Q01DX001 (ip), vehicle: saline 101 % of control | [1] 105 % of control | dose: 25.0 mg/kg/injection, schedule: Q04DX003 (ip), vehicle: saline 109 % of control [middle of 4 runs] | dose: 26.0 mg/kg/injection, schedule: Q04DX003 (ip), vehicle: saline 121 % of control | dose: 27.0 mg/kg/injection, schedule: Q01DX015 (ip), vehicle: saline 106 % of control | dose: 30.0 mg/kg/injection, schedule: Q01DX Z (ip), vehicle: methylcellulose (MC) 117 % of control | dose: 37.5 mg/kg/injection, schedule: Q01DX001 (ip), vehicle: saline 120 % of control | dose: 37.5 mg/kg/injection, schedule: Q01DX009 (ip), vehicle: saline 120 % of control | dose: 40.0 mg/kg/injection, schedule: Q01DX015 (ip), vehicle: saline 112 % of control | dose: 40.0 mg/kg/injection, schedule: Q04DX003 (ip), vehicle: saline 106 % of control | dose: 45.0 mg/kg/injection, schedule: Q01DX Z (ip), vehicle: methylcellulose (MC) 100 % of control | dose: 50.0 mg/kg/injection, schedule: Q01DX001 (ip), vehicle: saline 108 % of control | [2] 121 % of control | dose: 50.0 mg/kg/injection, schedule: Q04DX003 (ip), vehicle: saline 101 % of control and 113 % of control | dose: 60.0 mg/kg/injection, schedule: Q01DX015 (ip), vehicle: saline 117 % of control | dose: 67.5 mg/kg/injection, schedule: Q01DX Z (ip), vehicle: methylcellulose (MC) 99 % of control | dose: 75.0 mg/kg/injection, schedule: Q04DX003 (ip), vehicle: saline 116 % of control | dose: 90.0 mg/kg/injection, schedule: Q01DX015 (ip), vehicle: saline 104 % of control | [3] 89 % of control | dose: 100.0 mg/kg/injection, schedule: Q04DX003 (ip), vehicle: saline 99 % of control

NCC(=O)O.[Zn+2]
inactive: dose: 100.0 mg/kg/injection, schedule: Q01DX001 (ip), vehicle: water 97 % of control | dose: 200.0 mg/kg/injection, schedule: Q01DX001 (ip), vehicle: water 96 % of control | dose: 400.0 mg/kg/injection, schedule: Q01DX001 (ip), vehicle: water 94 % of control

CN=C(c1ccc(NC(=O)c2ccc(C(=O)Nc3ccc(C(=NC)N(C)C(C)=O)cc3)cc2)cc1)N(C)C(C)=O
inactive: dose: 4.0 mg/kg/injection, schedule: Q01DX Z (ip), vehicle: carboxymethylcellulose (CMC) 98 % of control | dose: 6.0 mg/kg/injection, schedule: Q01DX Z (ip), vehicle: carboxymethylcellulose (CMC) 104 % of control | dose: 8.0 mg/kg/injection, schedule: Q01DX Z (ip), vehicle: carboxymethylcellulose (CMC) 90 % of control | dose: 10.0 mg/kg/injection, schedule: Q01DX Z (ip), vehicle: carboxymethylcellulose (CMC) 101 % of control | dose: 12.5 mg/kg/injection, schedule: Q01DX Z (ip), vehicle: carboxymethylcellulose (CMC) 110 % of control | dose: 50.0 mg/kg/injection, schedule: Q01DX Z (ip), vehicle: carboxymethylcellulose (CMC) 87 % of control

CC(=O)N(C)c1ccc(NC(=O)Nc2cc([N+](=O)[O-])ccc2C)cc1
inactive: dose: 100.0 mg/kg/injection, schedule: Q04DX002 (ip), vehicle: Klucel (hydroxypropylcellulose) (HPC) 106 % of control | dose: 200.0 mg/kg/injection, schedule: Q04DX002 (ip), vehicle: Klucel (hydroxypropylcellulose) (HPC) 108 % of control | dose: 400.0 mg/kg/injection, schedule: Q04DX002 (ip), vehicle: Klucel (hydroxypropylcellulose) (HPC) 101 % of control

Nc1ccc2oc(=O)c(C(=O)O)cc2c1
inactive: dose: 100.0 mg/kg/injection, schedule: Q01DX001 (ip), vehicle: Klucel (hydroxypropylcellulose) (HPC) 112 % of control | dose: 200.0 mg/kg/injection, schedule: Q01DX001 (ip), vehicle: Klucel (hydroxypropylcellulose) (HPC) 89 % of control

CN(C(=O)c1ccccc1Cl)C(c1ccco1)P(=O)(c1ccccc1)c1ccccc1 (stereo unspecified)
inactive: dose: 100.0 mg/kg/injection, schedule: Q01DX009 (ip), vehicle: saline with Tween-80 93 % of control | dose: 100.0 mg/kg/injection, schedule: Q04DX002 (ip), vehicle: saline with Tween-80 93 % of control | dose: 200.0 mg/kg/injection, schedule: Q01DX009 (ip), vehicle: saline with Tween-80 90 % of control | dose: 200.0 mg/kg/injection, schedule: Q04DX002 (ip), vehicle: saline with Tween-80 90 % of control | dose: 400.0 mg/kg/injection, schedule: Q01DX009 (ip), vehicle: saline with Tween-80 87 % of control | dose: 400.0 mg/kg/injection, schedule: Q04DX002 (ip), vehicle: saline with Tween-80 90 % of control

O=C(c1ccccc1)c1cccnc1
inactive: dose: 100.0 mg/kg/injection, schedule: Q04DX003 (ip), vehicle: saline with Tween-80 101 % of control | dose: 200.0 mg/kg/injection, schedule: Q04DX003 (ip), vehicle: saline with Tween-80 101 % of control | dose: 400.0 mg/kg/injection, schedule: Q04DX003 (ip), vehicle: saline with Tween-80 104 % of control

C=CCSCC(=O)Cl
inactive: [1] 102 % of control | [2] 100 % of control | [3] 110 % of control | dose: 100.0 mg/kg/injection, schedule: Q04DX002 (ip), vehicle: saline 95 % of control

COC(=O)Nc1ccc2nc(NC(=O)OC)[nH]c2c1
inactive: dose: 20.0 mg/kg/injection, schedule: Q01DX009 (ip), vehicle: other 97 % of control | dose: 40.0 mg/kg/injection, schedule: Q01DX009 (ip), vehicle: other 101 % of control | dose: 80.0 mg/kg/injection, schedule: Q01DX009 (ip), vehicle: other 104 % of control
